Measurements published in ChEMBL document CHEMBL3044810, “Synthesis and herbicidal activity of alkyl 1-(3-trifluoromethylphenoxyacetoxy)-1-substituted methylphosphonates” (J Pestic Sci, 2007).

Tests used:
Brassica napus [1] = experiment: Post-emergence herbicidal activity against Brassica napus (oilseed rape) assessed as growth inhibition at 1.5 ai kg/ha under green house conditions; assay type: functional
Brassica napus [2] = experiment: Pre-emergence herbicidal activity against Brassica napus (oilseed rape) assessed as growth inhibition at 1.5 ai kg/ha under green house conditions; assay type: functional
Digitaria sanguinalis [3] = experiment: Post-emergence herbicidal activity against Digitaria sanguinalis (hairy crabgrass) assessed as growth inhibition at 1.5 ai kg/ha under green house conditions; assay type: functional
Digitaria sanguinalis [4] = experiment: Pre-emergence herbicidal activity against Digitaria sanguinalis (hairy crabgrass) assessed as growth inhibition at 1.5 ai kg/ha under green house conditions; assay type: functional
Echinochloa crus-galli [5] = experiment: Post-emergence herbicidal activity against Echinochloa crus-galli (barnyard grass) assessed as growth inhibition at 1.5 ai kg/ha under green house conditions; assay type: functional
Echinochloa crus-galli [6] = experiment: Pre-emergence herbicidal activity against Echinochloa crus-galli (barnyard grass) assessed as growth inhibition at 1.5 ai kg/ha under green house conditions; assay type: functional
Cucumis sativus = experiment: Pre-emergence growth inhibition of Cucumis sativus (cucumber) under green house conditions; assay type: functional, organism-based
Amaranthus retroflexus [7] = experiment: Post-emergence herbicidal activity against Amaranthus retroflexus assessed as growth inhibition at 1.5 ai kg/ha under green house conditions; assay type: functional
Amaranthus retroflexus [8] = experiment: Pre-emergence herbicidal activity against Amaranthus retroflexus assessed as growth inhibition at 1.5 ai kg/ha under green house conditions; assay type: functional
Medicago sativa [9] = experiment: Post-emergence herbicidal activity against Medicago sativa (alfalfa) assessed as growth inhibition at 1.5 ai kg/ha under green house conditions; assay type: functional
Medicago sativa [10] = experiment: Pre-emergence herbicidal activity against Medicago sativa (alfalfa) assessed as growth inhibition at 1.5 ai kg/ha under green house conditions; assay type: functional

SMILES	growth inhibition (GI) (Brassica napus [1]) [%]	growth inhibition (GI) (Brassica napus [2]) [%]	growth inhibition (GI) (Digitaria sanguinalis [3]) [%]	growth inhibition (GI) (Digitaria sanguinalis [4]) [%]	growth inhibition (GI) (Echinochloa crus-galli [5]) [%]	growth inhibition (GI) (Echinochloa crus-galli [6]) [%]	IC50 (Cucumis sativus) [µg/g]	growth inhibition (GI) (Amaranthus retroflexus [7]) [%]	growth inhibition (GI) (Amaranthus retroflexus [8]) [%]	growth inhibition (GI) (Medicago sativa [9]) [%]	growth inhibition (GI) (Medicago sativa [10]) [%]
COP(=O)(OC)C(OC(=O)COc1ccc([N+](=O)[O-])cc1)c1ccccc1 (centres undefined)	5.49	-2.78	-5.2	0	0	0.8	223				
O=C(COc1ccc(Cl)cc1Cl)OC(c1ccccc1Cl)P(=O)(O)O (centres undefined)	49	67	13	23	20.5	10		23	23		
COP(=O)(OC)C(C)OC(=O)COc1cccc(C(F)(F)F)c1 (centres undefined)	92.6	56.1	39.1	73.1	12.3	57.3		27.3	43.4	100	63.8
COP(=O)([O-])COC(=O)COc1ccc(Cl)cc1Cl.[Na+]	97.7	96.6	28.6	90.3	28	84.6	0.31	100	96.6	92.5	100
COP(=O)(OC)C(OC(=O)COc1cccc(C(F)(F)F)c1)c1ccc(C)cc1 (centres undefined)	14.2	50.4	0	95.7	23.6	80.4	4.04	96.2	100	91.2	100
COP(=O)(OC)C(C)OC(=O)COc1cc(F)cc(F)c1 (centres undefined)	0	0	27.2	0	3.8	0	93.5	14.9	0	0	10.4
CCCC(OC(=O)COc1ccc(Cl)cc1Cl)P(=O)([O-])OC.[K+] (centres undefined)	42.6	37	38.9	35.2	33.8	32.1	4.21	38.5	18.6	91.2	10.2
COP(=O)(OC)C(C)OC(=O)COc1cccc(Cl)c1Cl (centres undefined)	23.3	0	35.5	0	13.6	19.1	74.11	43.8	16.7	0	8.3
CCOP(=O)(OCC)C(OC(=O)COc1cccc(C(F)(F)F)c1)c1ccc2c(c1)OCO2 (centres undefined)	61.7	12.6	24	100	0	80.4	5.91	88.5	95.5	100	93.2
CCOP(=O)(OCC)C(C)OC(=O)COc1ccc(C)cc1 (centres undefined)	30.9	62.17	0	0	47.4			0			
COP(=O)(OC)C(C)OC(=O)COc1ccccc1 (centres undefined)	21	7.1	0	0	12	0	89.1	5	0	9.4	27.2
O=C(O)COc1ccc(Cl)cc1Cl [2,4-DICHLOROPHENOXYACETIC ACID]	89.13	100	59.6	88.7	54.5	80	0.1379	100	95.5	95.5	90
COP(=O)(OC)C(C)OC(=O)COc1ccc(Cl)cc1Cl (centres undefined) [CLACYFOS]	100	99.5	55	70	50	70		100	100	100	98
COP(=O)(OC)C(OC(=O)COc1cccc(C(F)(F)F)c1)c1ccccc1Cl (centres undefined)	54.6	61	36	97.9	23.5	54	3.57	100	100	100	100
CCOP(=O)(OCC)C(OC(=O)COc1cccc(C(F)(F)F)c1)c1ccc(Cl)cc1 (centres undefined)	45.4	13.8	16	95.7	5.6	76.5	4.32	86.3	86.4	100	100
COP(=O)(OC)C(OC(=O)COc1ccc(Cl)cc1Cl)c1ccccc1Cl (centres undefined)	100	100	68.75	50	50	70	0.048	100	100		
COP(=O)(OC)C(OC(=O)COc1cccc(C(F)(F)F)c1)c1ccc2c(c1)OCO2 (centres undefined)	43.3	64.6	12	93.2	15.3	70.6	4.87	88.5	100	100	100
COP(=O)(OC)C(C)OC(=O)COc1ccc(F)cc1F (centres undefined)	61	39.3	48.5	73.6	20.2	36	0.59	77.5	38.9	49.4	52.1
COP(=O)(OC)C(C)OC(=O)COc1cccc(F)c1 (centres undefined)	0	0	22.7	0	17.8	4.4	111.13	0	0	0	0
COP(=O)(OC)C(OC(=O)COc1cccc(C(F)(F)F)c1)c1ccc(Cl)cc1 (centres undefined)	57.4	38.6	12	91.5	0	84.2	3.16	88.5	100	100	89.8
